Results: patent US5198358A, “Microorganism for producing C-31 desmethyl FR-900520 cyclic hemiketal immunosuppressant agent” (Merck & Co., Inc., priority 1991, dated 1993)
Values joined by “and” are separate entries in the source; they are usually repeats but may differ in a detail not shown here. Equal values may be shown once. “Also recorded” adds a separate entry of the source. Read-outs that look alike come from different tables or passages of the source.

Legend:
[1] = target: T1, 31-O-desmethylimmunomycin O-methyltransferase (DIMT) (Streptomyces hygroscopicus, UniProt Q9KID5); assay: S-adenosyl-L-methionine: 31-O-desmethylimmunomycin O-methyltransferase (DIMT) assay
T1 sequence (Q9KID5 1-260): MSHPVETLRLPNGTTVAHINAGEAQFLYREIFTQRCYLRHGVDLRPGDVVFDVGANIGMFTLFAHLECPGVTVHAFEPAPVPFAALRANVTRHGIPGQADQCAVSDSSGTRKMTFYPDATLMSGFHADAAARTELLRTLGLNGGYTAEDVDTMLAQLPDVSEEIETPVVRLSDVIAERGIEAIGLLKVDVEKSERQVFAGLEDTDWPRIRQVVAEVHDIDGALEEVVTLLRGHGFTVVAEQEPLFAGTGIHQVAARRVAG
Procedure: The assay was carried out in 1 ml. mixture containing 0.025 mM 31-desmethylimmunomycin, 1 mM MgSO4 and different quantities of the enzyme source in 50 mM phosphate buffer, pH 7.5. Reaction was initiated by the addition of 1 nmole of ^14 C-SAM (S-adenosyl-L-[methyl-^14 C] methionine with the specific activity of 46 mCi/mmole. Incubation of the complete mixture was carried out at 34° C. for 20 minutes and the reaction was terminated by the addition of ethyl acetate. Product of the reaction was extracted with 2 ml of ethyl acetate and 1 ml of the extract was used for TLC and HPLC analysis. For the analysis of the radioactive reaction product (immunomycin), the ethyl acetate extract was spiked with the standard immunomycin and subjected to the TLC with a plate having plastic support. The plastic sheet was developed in chloroform:methanol (9:1) and area showing standard immunomycin under UV-light was cut and the radioactivity in the cut-strip was measured. The amount of the product formed was calculated from the measured radioactivity. For the HPLC analysis of the product of the enzyme reaction, several enzymatic reaction mixtures were pooled and the extract was subjected to the TLC analysis as above. The area on the silica gel plate showing the band having an Rf value identical with the standard immunomycin was scraped and eluted with ethyl acetate. The ethyl acetate extract was washed with water, dried under nitrogen and the residue was subjected to the HPLC analysis on Partisil 5-ODS-3 column with acetonitrile:water:phosphoric acid (65:35:0.1) as the eluting solvent. One milliliter fractions were collected and a portion of each fraction was examined for the radioactivity.
Examination of the optimal temperature, pH and metal requirement of the DIMT activity was carried out on the enzyme preparation obtained from DEAE-Sepharose column. For kinetic analysis, a preparation which had been purified through a second MonoQ column chromatography was utilized.

[2] = system: Splenic T-cells stimulated with ionomycin + PMA; assay: T-cell proliferation assay (ionomycin plus PMA induced T-cell stimulation); assay type: cell-based, mouse; details: for Inhibition of T-cell activation (result in words): T-cell proliferation assay
Procedure: Cells were pelleted by centrifugation at 1500 rpm for 8 minutes. Contaminating red cells were removed by treating the pellet with ammonium chloride lysing buffer (GIBCO) for 2 minutes at 4° C. Cold medium was added and cells were again centrifuged at 1500 rpm for 8 minutes. T lymphocytes were then isolated by separation of the cell suspension on nylon wool columns as follows: Nylon wool columns were prepared by packing approximately 4 grams of washed and dried nylon wool into 20 ml plastic syringes. The columns were sterilized by autoclaving at 250° F. for 30 minutes. Nylon wool columns were wetted with warm (37° C.) culture medium and rinsed with the same medium. Washed spleen cells resuspended in warm medium were slowly applied to the nylon wool. The columns were then incubated in an upright position at 37° C. for 1 hour. Non-adherent T lymphocytes were eluted from the columns with warm culture medium and the cell suspensions were spun as above.
The cell suspension was immediately distributed into 96 well flat-bottom microculture plates (Costar) at 200 μl/well. […] The proliferation of T lymphocytes was assessed by measurement of tritiated thymidine incorporation. After 44 hours of culturing, the cells were pulse-labelled with 2 μCi/well of tritiated thymidine (NEN, Cambridge, Mass.). After another 4 hours of incubation, cultures were harvested on glass fiber filters using a multiple sample harvester. Radioactivity of filter discs corresponding to individual wells was measured by standard liquid scintillation counting methods (Betacounter). Mean counts per minute of replicate wells were calculated and the results expressed as percent inhibition of tritiated thymidine uptake (proliferation) as follows: [formula]

[3] = reputed; EPO Publication No. 0184162; cited from earlier work
[4] = substrate: C[S+](CC[C@H](N)C(=O)[O-])C[C@H]1O[C@@H](n2cnc3c(N)ncnc32)[C@H](O)[C@@H]1O; assay: purified protein, by the assay type; details: other: SAM as variable substrate, 25 umM 31-O-desmethylimmunomycin as cosubstrate; pH 7.5
Procedure: The assay was carried out in 1 ml. mixture containing 0.025 mM 31-desmethylimmunomycin, 1 mM MgSO4 and different quantities of the enzyme source in 50 mM phosphate buffer, pH 7.5. Reaction was initiated by the addition of 1 nmole of ^14 C-SAM (S-adenosyl-L-[methyl-^14 C] methionine with the specific activity of 46 mCi/mmole. Incubation of the complete mixture was carried out at 34° C. for 20 minutes and the reaction was terminated by the addition of ethyl acetate. Product of the reaction was extracted with 2 ml of ethyl acetate and 1 ml of the extract was used for TLC and HPLC analysis. For the analysis of the radioactive reaction product (immunomycin), the ethyl acetate extract was spiked with the standard immunomycin and subjected to the TLC with a plate having plastic support. The plastic sheet was developed in chloroform:methanol (9:1) and area showing standard immunomycin under UV-light was cut and the radioactivity in the cut-strip was measured. The amount of the product formed was calculated from the measured radioactivity. For the HPLC analysis of the product of the enzyme reaction, several enzymatic reaction mixtures were pooled and the extract was subjected to the TLC analysis as above. […] One milliliter fractions were collected and a portion of each fraction was examined for the radioactivity. […]

[5] = substrate: [H][C@@]1(/C=C(\C)[C@@]2([H])OC(=O)[C@]3([H])CCCCN3C(=O)C(=O)[C@]3(O)O[C@]([H])([C@@H](OC)C[C@@H](C)C/C(C)=C/[C@@H](CC)C(=O)C[C@H](O)[C@H]2C)[C@@H](OC)C[C@H]3C)CC[C@@H](O)[C@H](O)C1; assay: purified protein, by the assay type; details: other: 31-O-desmethylimmunomycin as variable substrate, 40 uM SAM; Lineweaver-Burk; pH 7.5
[6] = Mus musculus, T-cell, HPLC purified samples, evaluated in the same set of experiments, read-out: IC50 (biological activity)

**Q.** Which “apparent Vmax” value ([1]; 31-O-desmethylimmunomycin as variable substrate, 40 uM SAM, Lineweaver-Burk) does the source give for `CC[C@@H]1/C=C(\C)C[C@H](C)C[C@H](OC)[C@H]2O[C@@](O)(C(=O)C(=O)N3CCCC[C@H]3C(=O)O[C@H](/C(C)=C/[C@@H]3CC[C@@H](O)[C@H](O)C3)[C@H](C)[C@@H](O)CC1=O)[C@H](C)C[C@@H]2OC` [31-O-desmethylimmunomycin] here?
**A.** 45.5 nmol/h/mg

**Q.** What does the source list for `CC[C@@H]1C=C2COC1(O)C[C@H](O)[C@@H](C)[C@@H](/C(C)=C/[C@@H]1CC[C@@H](O)[C@H](OC)C1)OC(=O)[C@@H]1CCCCN1C(=O)C(=O)[C@]1(O)O[C@H]([C@@H](OC)C[C@@H](C)C2)[C@@H](OC)C[C@H]1C` [Compound II]?
**A.** IC50 [2, 6]: ~6 nM; Inhibition of T-cell activation (result in words) [2]: positive inhibition of T-cell activation; also recorded: positive results

**Q.** Which results are given for `CC[C@@H]1C=C2COC1(O)C[C@H](O)[C@@H](C)[C@@H](/C(C)=C/[C@@H]1CC[C@@H](O)[C@H](O)C1)OC(=O)[C@@H]1CCCCN1C(=O)C(=O)[C@]1(O)O[C@H]([C@@H](OC)C[C@@H](C)C2)[C@@H](OC)C[C@H]1C` [Compound I]?
**A.** inhibition at 0.0025 µM ([2]; Mus musculus, T-cell, 2.5 nM, tritiated thymidine uptake, harvest at 48 hours, read-out: Percent of Inhibition): 0%; inhibition at 0.0049 µM ([2]; Mus musculus, T-cell, 4.9 nM, tritiated thymidine uptake, harvest at 48 hours, read-out: Percent of Inhibition): 0%; inhibition at 0.0099 µM ([2]; Mus musculus, T-cell, 9.9 nM, tritiated thymidine uptake, harvest at 48 hours, read-out: Percent of Inhibition): 39%; inhibition at 0.0197 µM ([2]; Mus musculus, T-cell, 19.7 nM, tritiated thymidine uptake, harvest at 48 hours, read-out: Percent of Inhibition): 65%; inhibition at 0.0394 µM ([2]; Mus musculus, T-cell, 39.4 nM, tritiated thymidine uptake, harvest at 48 hours, read-out: Percent of Inhibition): 89%; inhibition at 0.0788 µM ([2]; Mus musculus, T-cell, 78.8 nM, tritiated thymidine uptake, harvest at 48 hours, read-out: Percent of Inhibition): 95%; inhibition at 0.1576 µM ([2]; Mus musculus, T-cell, 157.6 nM, tritiated thymidine uptake, harvest at 48 hours, read-out: Percent of Inhibition): 98%; inhibition at 0.3152 µM ([2]; Mus musculus, T-cell, 315.2 nM, tritiated thymidine uptake, harvest at 48 hours, read-out: Percent of Inhibition): 98%; IC50 [2, 6]: ~11 nM; IC50 ([2]; Mus musculus, T-cell proliferation, Example 4, read-out: IC50): 0.0115 µg/mL and 14.5 nM; Inhibition of T-cell activation (result in words) [2]: positive inhibition of T-cell activation; also recorded: antagonist activity versus the FK-506 immunosuppressive activity; Effect of IL2 on inhibition of T-cell proliferation ([2]; addition of 50 units/ml of recombinant IL2 at the initiation of culture): reversed

**Q.** What does the source list for `O=C(O)CN(CCN(CC(=O)O)CC(=O)O)CC(=O)O` [EDTA]?
**A.** Inhibition of DIMT activity [1]: major inhibition; Inhibition of DIMT activity ([1]; crude extract): completely inhibited

**Q.** Which results are given for `C=CC[C@@H]1/C=C(\C)C[C@H](C)C[C@H](OC)[C@H]2O[C@@](O)(C(=O)C(=O)N3CCCC[C@H]3C(=O)O[C@H](/C(C)=C/[C@@H]3CC[C@@H](O)[C@H](OC)C3)[C@H](C)[C@@H](O)CC1=O)[C@H](C)C[C@@H]2OC` [FR900506, reference compound]?
**A.** inhibition at 0.01 µg/mL ([2]; Mus musculus, T-cell, 10 ng/ml, standard): 99%; Effectiveness relative to cyclosporin [3]: 100 times

**Q.** With `CC[C@@H]1/C=C(\C)C[C@H](C)C[C@H](OC)[C@H]2O[C@@](O)(C(=O)C(=O)N3CCCC[C@H]3C(=O)O[C@H](/C(C)=C/[C@@H]3CC[C@@H](O)[C@H](OC)C3)[C@H](C)[C@@H](O)CC1=O)[C@H](C)C[C@@H]2OC` [FR-900520, 17-Ethyl-1,14-dihydroxy-12-[2-(4-hydroxy-3-methoxycyclohexyl)-1-methylvinyl]-23-25-dimethoxy-13,19,21,27-tetramethyl-11,28-dioxa-4-azatricyclo [22.3.1.0^4,9]octacos-18-ene-2,3,10,16-tetraone] as the molecule, how does the IC50 [2, 6] read?
**A.** ~1 nM

**Q.** Which “Inhibition of DIMT activity” value [1] does the source give for `Nc1ncnc2c1ncn2[C@@H]1O[C@H](CSCC[C@H](N)C(=O)O)[C@@H](O)[C@H]1O` [S-adenosyl-homocysteine (SAH), S-adenosyl-homocysteine] here?
**A.** major inhibition

**Q.** Which “Inhibition of DIMT activity” value ([1]; crude extract) does the source give for `N.N.O=S(=O)(O)O` [ammonium sulfate] here?
**A.** inhibited

**Q.** With `Nc1ncnc2c1ncn2[C@@H]1O[C@H](C[C@@H](N)CC[C@H](N)C(=O)O)[C@@H](O)[C@H]1O` [sinefungin] as the molecule, how does the “Inhibition of DIMT activity” value [1] read?
**A.** major inhibition

B1: 31-O-desmethylimmunomycin O-methyltransferase (DIMT) (Streptomyces hygroscopicus subsp. ascomyceticus) (protein)
chain: MSHPVETLRLPNGTTVAHINAGEAQFLYREIFTQRCYLRHGVDLRPGDVVFDVGANIGMFTLFAHLECPGVTVHAFEPAPVPFAALRANVTRHGIPGQADQCAVSDSSGTRKMTFYPDATLMSGFHADAAARTELLRTLGLNGGYTAEDVDTMLAQLPDVSEEIETPVVRLSDVIAERGIEAIGLLKVDVEKSERQVFAGLEDTDWPRIRQVVAEVHDIDGALEEVVTLLRGHGFTVVAEQEPLFAGTGIHQVAARRVAG
**Q.** With B1 as the molecule, how does the Km [4] read?
**A.** 12.5 µM

**Q.** And the Vmax [4]?
**A.** 100 nmol/h/mg

**Q.** What about the Km [5] of the same molecule?
**A.** 11 µM
